What was measured:
MDA-MB-231 [1] = experiment: Induction of apoptosis in human MDA-MB-231 cells assessed as necrotic cells at 100 uM incubated for 48 hrs by Annexin V-FITC/PI staining based flow cytometric analysis (reference value: 1.63%); format: functional
MDA-MB-231 [2] = experiment: Cell cycle arrest in human MDA-MB-231 cells assessed as G2 phase cells at 100 uM incubated for 48 hrs by PI staining based flow cytometric analysis (reference value: 18.6%); format: functional
MDA-MB-231 [3] = experiment: Induction of apoptosis in human MDA-MB-231 cells assessed as viable cells at 100 uM incubated for 48 hrs by Annexin V-FITC/PI staining based flow cytometric analysis (reference value: 95.10%); format: functional; conditions: read-out: Activity
MDA-MB-468 = experiment: Antiproliferative activity against human MDA-MB-468 cells assessed as reduction in cell viability incubated for 96 hrs by MTT assay; conditions: MDA-MB-468, 96 h
MDA-MB-231 [4] = experiment: Cell cycle arrest in human MDA-MB-231 cells assessed as G1 phase cells at 100 uM incubated for 72 hrs by PI staining based flow cytometric analysis (reference value: 51.5%); format: functional
[5] = target: Cell division cycle protein 20 homolog (Homo sapiens, UniProt Q12834); experiment: Binding affinity human CDC20 assessed as dissociation constant by SPR analysis
Chain of Cell division cycle protein 20 homolog (Q12834 whole entry): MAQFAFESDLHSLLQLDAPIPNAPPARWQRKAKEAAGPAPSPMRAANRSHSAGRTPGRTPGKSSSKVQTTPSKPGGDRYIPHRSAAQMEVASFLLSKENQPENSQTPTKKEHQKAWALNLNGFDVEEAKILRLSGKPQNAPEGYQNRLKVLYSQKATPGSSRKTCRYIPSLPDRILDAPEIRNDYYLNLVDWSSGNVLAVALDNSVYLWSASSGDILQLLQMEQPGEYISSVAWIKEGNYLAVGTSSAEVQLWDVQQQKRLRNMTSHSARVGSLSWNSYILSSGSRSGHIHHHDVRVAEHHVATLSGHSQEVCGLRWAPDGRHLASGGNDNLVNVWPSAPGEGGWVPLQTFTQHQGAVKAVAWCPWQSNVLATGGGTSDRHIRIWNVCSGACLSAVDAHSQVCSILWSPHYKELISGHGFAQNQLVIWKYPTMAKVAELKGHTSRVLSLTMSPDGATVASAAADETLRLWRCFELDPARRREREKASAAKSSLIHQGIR

MCF7 = experiment: Antiproliferative activity against human MCF7 cells assessed as reduction in cell viability incubated for 96 hrs by MTT assay; conditions: MCF7, 96 h
MDA-MB-231 [6] = experiment: Cell cycle arrest in human MDA-MB-231 cells assessed as G1 phase cells at 100 uM incubated for 48 hrs by PI staining based flow cytometric analysis (reference value: 76.7%); format: functional
[7] = Cytotoxicity against human L02 cells assessed as reduction in cell viability incubated for 96 hrs by MTT assay; format: toxicity, cell-based
MDA-MB-231 [8] = experiment: Cell cycle arrest in human MDA-MB-231 cells assessed as S phase cells at 100 uM incubated for 72 hrs by PI staining based flow cytometric analysis (reference value: 29.9%); format: functional
MDA-MB-231 [9] = experiment: Cell cycle arrest in human MDA-MB-231 cells assessed as G2 phase cells at 100 uM incubated for 72 hrs by PI staining based flow cytometric analysis (reference value: 18.6%); format: functional
MDA-MB-231 [10] = experiment: Induction of apoptosis in human MDA-MB-231 cells assessed as early apoptotic cells at 100 uM incubated for 48 hrs by Annexin V-FITC/PI staining based flow cytometric analysis (reference value: 2.25 %); format: functional
MDA-MB-231 [11] = experiment: Antiproliferative activity against human MDA-MB-231 cells assessed as reduction in cell viability incubated for 96 hrs by MTT assay; conditions: MDA-MB-231, 96 h
MDA-MB-231 [12] = experiment: Cell cycle arrest in human MDA-MB-231 cells assessed as S phase cells at 100 uM incubated for 24 hrs by PI staining based flow cytometric analysis (reference value: 29.9%); format: functional
A549 = experiment: Antiproliferative activity against human A549 cells assessed as reduction in cell viability incubated for 96 hrs by MTT assay; conditions: A549, 96 h
MDA-MB-231 [13] = experiment: Cell cycle arrest in human MDA-MB-231 cells assessed as S phase cells at 100 uM incubated for 48 hrs by PI staining based flow cytometric analysis (reference value: 16.0%); format: functional
MDA-MB-231 [14] = experiment: Induction of apoptosis in human MDA-MB-231 cells assessed as late apoptotic cells at 100 uM incubated for 48 hrs by Annexin V-FITC/PI staining based flow cytometric analysis (reference value: 1.06%); format: functional
MDA-MB-231 [15] = experiment: Cell cycle arrest in human MDA-MB-231 cells assessed as G2 phase cells at 100 uM incubated for 24 hrs by PI staining based flow cytometric analysis (reference value: 18.6%); format: functional
MDA-MB-231 [16] = experiment: Cell cycle arrest in human MDA-MB-231 cells assessed as G1 phase cells at 100 uM incubated for 24 hrs by PI staining based flow cytometric analysis (reference value: 51.5%); format: functional
MDA-MB-231 [17] = experiment: Cell cycle arrest in human MDA-MB-231 cells assessed as S phase cells at 100 uM incubated for 48 hrs by PI staining based flow cytometric analysis (reference value: 29.9%); format: functional
MDA-MB-231 [18] = experiment: Cell cycle arrest in human MDA-MB-231 cells assessed as G1 phase cells at 100 uM incubated for 48 hrs by PI staining based flow cytometric analysis (reference value: 51.5%); format: functional
MDA-MB-231 [19] = experiment: Cell cycle arrest in human MDA-MB-231 cells assessed as G2 phase cells at 100 uM incubated for 48 hrs by PI staining based flow cytometric analysis (reference value: 7.3%); format: functional

IC50 (MDA-MB-468): 83.4 µM | Kd [5]: 172 µM | IC50 (MCF7): 109 µM | IC50 (MDA-MB-231 [11]): 139 µM | IC50 (A549): 114 µM
Compound: Cc1ncc([N+](=O)[O-])n1CCOC(=O)NC(Nc1ncccn1)C(Cl)(Cl)Cl (configuration not stated)
Activity (MDA-MB-231 [1]): 2.43% | Activity (MDA-MB-231 [2]): 27.7% | viability at 100 µM (MDA-MB-231 [3]): 91.2% | Activity (MDA-MB-231 [4]): 39.2% | Activity (MDA-MB-231 [6]): 50.3% | IC50 at 96 h [7]: > 200 µM | Activity (MDA-MB-231 [8]): 24.6% | Activity (MDA-MB-231 [9]): 36.2% | Activity (MDA-MB-231 [10]): 3.22% | Activity (MDA-MB-231 [12]): 45.1% | Activity (MDA-MB-231 [13]): 38% | Activity (MDA-MB-231 [14]): 3.12% | Activity (MDA-MB-231 [15]): 26.1% | Activity (MDA-MB-231 [16]): 28.8% | Activity (MDA-MB-231 [17]): 23.5% | Activity (MDA-MB-231 [18]): 48.8% | Activity (MDA-MB-231 [19]): 11.7%

Reference: ChEMBL document CHEMBL5505975, “Design, synthesis and biological evaluation of CDC20 inhibitors for treatment of triple-negative breast cancer” (Eur J Med Chem, 2024)
